Tests used:
Assay in all cases: relative viability (nuclei count vs DMSO), 5 days (fraction); higher = more cells survive
[1] = compound: COC1=C(C=C(C=C1)C2=CC3=NC=CN3C(=N2)NC4=C(C=CC=N4)C(=O)N)OC [BAY61-3606] + Nc1nc2[nH]cc(CCc3ccc(C(=O)N[C@@H](CCC(=O)O)C(=O)O)cc3)c2c(=O)[nH]1 [Pemetrexed] (partner 0.2 µM)
In short: (§1)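 Lung cancer cell lines in 1536-well plates were dosed by pin tool the day after seeding, either with one drug alone or with a fixed anchor-drug dose plus five library-drug doses (not always all listed) in √10 steps. After 5 days, cells were fixed and their nuclei stained in one step (final 0.05% Triton X-100, 1% formaldehyde, 1 ug/ml Hoechst), then counted on 4× images. Relative viability is the nuclei count in treated wells divided by that in vehicle wells. Values are medians of duplicate plates.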

[2] = compound: COC1=C(C=C(C=C1)C2=CC3=NC=CN3C(=N2)NC4=C(C=CC=N4)C(=O)N)OC [BAY61-3606] + CC(C)C[C@H](NC(=O)[C@H](Cc1ccccc1)NC(=O)c1cnccn1)B(O)O [Bortezomib] (partner 0.002 µM)
In short: as §1

[3] = compound: COc1cccc2c1C(=O)c1c(O)c3c(c(O)c1C2=O)C[C@@](O)(C(=O)CO)C[C@@H]3O[C@H]1C[C@H](N)[C@H](O)[C@H](C)O1 [Doxorubicin] + Cc1cc(Nc2cc(N3CCN(C)CC3)nc(Sc3ccc(NC(=O)C4CC4)cc3)n2)n[nH]1 [Tozasertib] (partner 0.1 µM)
In short: as §1

[4] = compound: COC1=C(C=C(C=C1)C2=CC3=NC=CN3C(=N2)NC4=C(C=CC=N4)C(=O)N)OC [BAY61-3606] + CCNC(=O)c1noc(-c2cc(C(C)C)c(O)cc2O)c1-c1ccc(CN2CCOCC2)cc1 [Luminespib] (partner 0.01 µM)
In short: as §1

Cell Line: UMC-11
- relative viability ([1]; first compound 0.02 µM): 0.813
- relative viability ([1]; first compound 0.06325 µM): 0.795
- relative viability ([1]; first compound 0.2 µM): 0.789
- relative viability ([1]; first compound 0.6325 µM): 0.781
- relative viability ([1]; first compound 2 µM): 0.612
- relative viability ([2]; first compound 0.02 µM): 0.947
- relative viability ([2]; first compound 0.06325 µM): 0.616
- relative viability ([2]; first compound 0.2 µM): 0.643
- relative viability ([2]; first compound 0.6325 µM): 0.849
- relative viability ([2]; first compound 2 µM): 0.734
- relative viability ([3]; first compound 0.001 µM): 0.22
- relative viability ([3]; first compound 0.003162 µM): 0.215
- relative viability ([3]; first compound 0.01 µM): 0.209
- relative viability ([3]; first compound 0.03162 µM): 0.21
- relative viability ([3]; first compound 0.1 µM): 0.208
- relative viability ([4]; first compound 0.02 µM): 1.12
- relative viability ([4]; first compound 0.06325 µM): 1.17
- relative viability ([4]; first compound 0.2 µM): 1.08
- relative viability ([4]; first compound 0.6325 µM): 1.05
- relative viability ([4]; first compound 2 µM): 0.921

Reference: the supplement of paper PMC10307832
